Reference: patent US6403576B1, “Antifungal and antiparasitic compounds” (priority 1998, dated 2002)
≈ marks a conversion by molar mass, not a printed value. Like-named read-outs stand apart in the source and are kept apart here. Values belong to the compound of their own block, whether it stands above or below them.

Key:
[1] = system: Leishmania major promastigotes; conditions: cited from earlier work
[2] = rats; cited from earlier work
[3] = in vivo; cited from earlier work
[4] = system: Trichomonas vaginalis CDC-085 (ATCC#50143); assay: Trichomonad MIC assay, 96-well, 48 h; assay type: cell-based
Experimental: (§1) Trichomonad In Vitro and in Vivo Drug Screening Methods.(a) In Vitro: Several strains of T. vaginalis are maintained, covering the spectrum of metronidazole resistance: CDC85 (highly resistant); RU384, RU383, IR78 (moderately resistant); NYH286, RU284, RU393, C1-NIH (sensitive). These strains are routinely cultivated in a non-defined medium incorporating tryptose, yeast extract, maltose and supplemented with 10% horse serum.
(§2) In in vitro drug studies, plant extracts are tested using a 96-well plate assay as described by Meingassner et al., (1978, Antimicrob Agents Chemother 13, 1-3). This method uses only 200 ul of medium/well and thus uses very little plant extract. Results (in triplicate) are presented as “Minimal Inhibitory Concentration” (MIC) the lowest concentration completely blocking growth (Meingassner et al., 1978, supra). This method is also useful in comparing susceptibility of various strains (Meingassner et al., 1978, supra; Yarlett et al., 1987, Mol Biochem Parasitol 24, 255-261). […] Since vaginal O2 tensions are 1/20th to ¼th of atmospheric (Wagner et al., 1978, Fertil Steril 30, 50-53), it is more physiological to do drug sensitivity testing under conditions approaching this.
(§3) The trichomonad screen consists of two human pathogenic Trichomonas vaginalis strains and a livestock parasite Tritrichomonas foetus. The T. vaginalis isolates include a metronidazole sensitive isolate (C1-NIH: ATCC 30001) and a strain highly resistant to metronidazole (CDC-085: ATCC 50143). […] Table 4 details data from the initial group of 19 primary extracts. […] The results to Dec. 31, 1997 appear in Table 5.

[5] = system: Tritrichomonas foetus KV-1; assay: Trichomonad MIC assay, 96-well, 48 h; assay type: cell-based
Experimental: as §1, §2, §3

[6] = system: Trichomonas vaginalis strain C1-NIH (ATCC #30001); assay: Trichomonad MIC assay, 96-well, 48 h; assay type: cell-based
Experimental: as §1, §2, §3

[7] = cited from earlier work
[8] = 60 mg/day for 3 months; cited from earlier work
J-774 A.1 macrophages = conditions: 10 uM; not from mevalonate; cited from earlier work

SMILES: Nc1ccc(S(=O)(=O)c2ccc(N)cc2)cc1 [Dapsone, 4,4′-diaminodiphenyl sulfone]
reversibility of inhibition by p-aminobenzoate (PABA) folate or thymidine [1]: not reversible

SMILES: CC/C(=C(/c1ccc(OCCN(C)C)cc1)c1cccc(O)c1)c1ccccc1 [Droloxifene]
reduced total serum cholesterol compared to controls [2]: 65-70%

SMILES: Nc1nc(N)nc(Nc2ccc([As]3SCC(CO)S3)cc2)n1 (stereo not shown) [Melarsoprol]
incidence of cerebral episodes [3]: 3-5%

MIC ([4]; ATCC50143, Table 4, 48 hrs, metronidazole-resistant strain, read-out: MIC CDC-085 48 hrs): 400 µg/mL (≈ 2340 µM)
MIC ([5]; Table 4, 48 hrs, read-out: MIC KV-1 48 hrs): 4 µg/mL (≈ 23.4 µM)
MIC ([6]; ATCC30001, Table 4, 48 hrs, read-out: MIC C1-HIH 48 hrs): 3 µg/mL (≈ 17.5 µM)
SMILES: Cc1ncc([N+](=O)[O-])n1CCO [Metronidazole]
MIC ([4]; ATCC50143, Table 5, new plant extracts, read-out: MIC CDC-085): 400 µg/mL (≈ 2340 µM)
MIC ([5]; Table 5, new plant extracts, read-out: MIC KV1): 3 µg/mL (≈ 17.5 µM)
MIC ([6]; ATCC30001, Table 5, new plant extracts, read-out: MIC C1-NIH): 3 µg/mL (≈ 17.5 µM)

SMILES: CC(=O)N1CCN(c2ccc(OCC3COC(Cn4ccnc4)(c4ccc(Cl)cc4Cl)O3)cc2)CC1 (stereo not shown) [ketoconazole]
decreased plasma cholesterol from pretreatment baseline ([7]; 200 mg/day): 15%
decreased plasma cholesterol from pretreatment baseline ([7]; 1200 mg/day): 27%

SMILES: CC(C)=CCC/C(C)=C/C=C/C(C)=C/C=C/C(C)=C/C=C/C=C(C)/C=C/C=C(C)/C=C/C=C(\C)CCC=C(C)C [lycopene]
decrease in plasma LDL cholesterol [8]: 14%
cholesterol synthesis inhibited from acetate (J-774 A.1 macrophages): 73%
